Values of other authors as cited in patent US20070032466A1, “Drug containing chymase inhibitor as the active ingredient” (TEIJIN PHARMA LIMITED, priority 2003, published 2007).

Key:
mouse allergy model = conditions: oral administration
[1] = system: hamster model of myocardial infarction; conditions: administrated alone
new onset of diabetes = conditions: large scale clinical tests (CARPPP, HOPE, LIFE studies)
[2] = system: canine model of myocardial infarction; conditions: oral administration

| SMILES | suppression of new onset of diabetes (new onset of diabetes) | further results |
| --- | --- | --- |
| COC(=O)c1ccc2oc(C(=O)C(Cc3ccccc3)NC(=O)Cn3c(-c4ccccc4OC)ncc(N)c3=O)nc2c1 (stereo not drawn) [IV-I] | – | activity as a chymase inhibitor in a mouse allergy model (mouse allergy model): exhibit activity as a chymase inhibitor |
| CCOc1ccccc1CC1C(=O)N(C(=O)NC(c2ccc(C)cc2)c2ccc(C)cc2)C1C(=O)c1ccc(C(=O)O)cc1 (stereo not drawn) [4-[1-{[bis(4-methylphenyl)methyl]carbamoyl}-3-(2-ethoxybenzyl)-4-oxoazetizin-2-yloyl]benzoic acid] | – | effect on a hamster model of myocardial infarction [1]: has an effect |
| CCCCc1nc(Cl)c(CO)n1Cc1ccc(-c2ccccc2-c2nn[nH]n2)cc1 [losartan] | suppress new onset of diabetes | – |
| O=CNc1cnc(-c2ccccc2)n(CC(=O)NC(Cc2ccccc2)C(=O)C(=O)CCCOc2ccccn2)c1=O (stereo not drawn) [III-I] | – | effectiveness in a canine model of myocardial infarction [2]: effective |
| CCOC(=O)[C@H](CCc1ccccc1)N[C@@H](C)C(=O)N1[C@H](C(=O)O)C[C@@H]2CCC[C@@H]21 [ramipril] | suppress new onset of diabetes | – |
| C[C@H](CS)C(=O)N1CCC[C@H]1C(=O)O [captopril] | suppress new onset of diabetes | – |
